Consider 1 compound from ChEMBL document CHEMBL1159389, “Ulongapeptin, a cytotoxic cyclic depsipeptide from a Palauan marine cyanobacterium Lyngbya sp” (J Nat Prod, 2003).

In general, IC50 refers to the concentration that inhibits the measured activity by half. The low end stands for inhibition by little substance, the high end for a need for much substance.

In the test the test system is KB. In words: Cytotoxicity against human KB cells. It counts as functional, cell-based.

The compound `C#CCCC[C@@H]1NC(=O)[C@H](C(C)C)NC(=O)[C@@H](Cc2ccccc2)N(C)C(=O)[C@@H](C(C)C)N(C)C(=O)[C@H](C(C)C)NC(=O)[C@H](C(C)C)N(C)C(=O)[C@H](C)OC(=O)[C@H]1C` [ULONGAPEPTIN] came in with a concentration for half-maximal inhibition (IC50) of 630 nM. That is a sub-micromolar value.
